# Results as given in patent US9994528B2, “Certain amino-pyridines and amino-triazines, compositions thereof, and methods for their use” (Cytokinetics, Inc., priority 2010, dated 2018).
# Test system: rabbit skeletal myofibrils (approximately 90% fast fibers)
# Test: Activation of fast skeletal myofibrils (PUMA coupled-enzyme ATPase assay)
# Type: biochemical
# Details: AC1.4 = concentration at which the compound increased the enzymatic activity by 40%; myofibril suspension at calcium level pCa25; PM12 buffer pH 6.8
# Method: Preparation of fast skeletal myofibrils. Rabbit skeletal myofibrils were prepared based upon the method of Herrmann et al. (Biochem. 32(28):7255-7263(1993). Myofibrils were prepared from rabbit psoas muscle purchased from Pel-Freez Biologicals (Arkansas) within 2 days of ordering, stored on ice. Minced muscle was homogenized in 10 volumes of ice-cold “standard” buffer (50 mM Tris, pH 7.4, 0.1 M potassium acetate, 5 mM KCl, 2 mM DTT, 0.2 mM PMSF, 10 μM leupeptin, 5 μM pepstatin, and 0.5 mM sodium azide) containing 5 mM EDTA and 0.5% Triton X-100 using an Omni-Macro homogenizer. Myofibrils were recovered by low speed centrifugation (3000 rpm for 10 minutes) and washed 2 times in the Triton X-100 containing buffer to ensure removal of cellular membrane. Following the Triton washes, myofibrils were washed 3 times in “standard” buffer containing 2 mM magnesium acetate. A final wash in assay buffer (12 mM PIPES, pH 6.8, 60 mM KCl, 1 mM DTT) was performed and brought to 10% sucrose for flash freezing in liquid nitrogen and storage at −80° C.
# Activation of Fast Skeletal Myofibrils. Fast fiber activators were identified by measuring the enzymatic activity of muscle myofibril preparations using the proprietary PUMA™ (see, e.g., U.S. Pat. Nos. 6,410,254, 6,743,599, 7,202,051, and 7,378,254) assay system. Myofibril preparations consisted of rabbit skeletal muscle (approximately 90% fast fibers) that had been mechanically homogenized and washed with a detergent (triton X-100) to remove cellular membranes. This preparation retained all of the sarcomeric components in a native conformation and the enzymatic activity was still regulated by calcium. Compounds were tested using a myofibril suspension and a level of calcium sufficient to increase enzymatic activity of the myofibrils to 25% of their maximal rate (termed pCa25). Enzymatic activity was tracked via a pyruvate kinase and lactate dehydrogenase-coupled enzyme system. This assay regenerates myosin-produced ADP into ATP by oxidizing NADH, producing an absorbance change at 340 nm. The buffering system was 12 mM Pipes, 2 mM MgCl2, 1 mM DTT at pH 6.8 (PM12 buffer).
# Using procedures similar to those described herein, utilizing reagents and intermediates commercially available (e.g., Sigma-Aldrich,) or readily synthesized by one of skill in the art, the compounds in Table 2 were synthesized, characterized and tested. AC1.4 values were determined according to the procedure described in Example 25, and the reported median AC1.4 values are as follows: A=<1 uM; B=1-10 uM; C=10-20 uM; D=>20 uM.
row,Compound,Mean AC1.4
1,"CC(C)(Nc1ncc(-c2cc(C(N)=O)ccc2F)nn1)c1cccc(OC(F)F)n1 [3-[3-({1-[6-(difluoromethoxy)(2-pyridyl)]-isopropyl}amino)(1,2,4-triazin-6-yl)]-4-fluorobenzamide]",A (A=<1 uM)
2,"CC(C)(Nc1ncc(-c2cc(C(N)=O)ccc2F)nn1)c1cccc(C(F)F)n1 [3-[3-({1-[6-(difluoromethyl)(2-pyridyl)]-isopropyl}amino)(1,2,4-triazin-6-yl)]-4-fluorobenzamide]",B (B=1-10 uM)
3,"CC(C)(Nc1ncc(-c2cc(C#N)ccc2F)nn1)c1cccc(C(F)F)n1 [3-[3-({1-[6-(difluoromethyl)(2-pyridyl)]-isopropyl}amino)(1,2,4-triazin-6-yl)]-4-fluorobenzenecarbonitrile]",B (B=1-10 uM)
4,"NC(=O)c1ccc(F)c(-c2cnc(NCC3(c4ncccc4Cl)CC(F)(F)C3)nn2)c1 [3-[3-({[1-(3-chloro(2-pyridyl))-3,3-difluorocyclobutyl]methyl}amino)(1,2,4-triazin-6-yl)]-4-fluorobenzamide]",A (A=<1 uM)
5,"NC(=O)c1ccc(F)c(-c2cnc(NC[C@]3(c4ncccc4Cl)C[C@H](F)C3)nn2)c1 [3-[3-({[1-(3-chloro(2-pyridyl))-3-fluorocyclobutyl]methyl}amino)(1,2,4-triazin-6-yl)]-4-fluorobenzamide]",A (A=<1 uM)
6,"NC(=O)c1cccc(-c2cnc(NC[C@]3(c4ncccc4Cl)C[C@H](F)C3)nn2)c1 [3-[3-({[1-(3-chloro(2-pyridyl))-3-fluorocyclobutyl]methyl}amino)-1,2,4-triazin-6-yl]benzamide]",A (A=<1 uM)
7,"N#Cc1cccc(-c2cnc(NC[C@]3(c4ncccc4Cl)C[C@H](F)C3)nn2)c1 [3-[3-({[1-(3-chloro(2-pyridyl))-3-fluorocyclobutyl]methyl}amino)-1,2,4-triazin-6-yl]benzenecarbonitrile]",B (B=1-10 uM)
8,"NC(=O)c1ccc(O)c(-c2cnc(NC[C@]3(c4ncccc4F)C[C@H](F)C3)nn2)c1 [3-[3-({[3-fluoro-1-(3-fluoro(2-pyridyl))cyclobulyl]methyl}amino)(1,2,4-triazin-6-yl)]-4-hydroxybenzamide]",A (A=<1 uM)
9,"NC(=O)c1cccc(-c2cnc(NC[C@]3(c4ncccc4F)C[C@H](F)C3)nn2)c1 [3-[3-({[3-fluoro-1-(3-fluoro(2-pyridyl))cyclobutyl]methyl}amino)-1,2,4-triazin-6-yl]benzamide]",A (A=<1 uM)
10,"NC(=O)c1ccc(F)c(-c2cnc(NC3(c4cccc(OC(F)F)n4)CCC3)nn2)c1 [3-[3-({[6-(difluoromethoxy)(2-pyridyl)]cyclobulyl}amino)(1,2,4-triazin-6-yl)]-4-fluorobenzamide]",A (A=<1 uM)
11,"CC(Nc1ncc(-c2cc(C(N)=O)ccc2F)nn1)c1cccc(OC(F)F)n1 (centres unmarked) [3-[3-({[6-(difluoromethoxy)(2-pyridyl)]ethyl}amino)(1,2,4-triazin-6-yl)]-4-fluorobenzamide]",C (C=10-20 uM)
12,"NC(=O)c1ccc(F)c(-c2cnc(NCc3cccc(OC(F)F)n3)nn2)c1 [3-[3-({[6-(difluoromethoxy)(2-pyridyl)]methyl}amino)(1,2,4-triazin-6-yl)]-4-fluorobenzamide]",D (D=>20 uM)
13,"NC(=O)c1ccc(F)c(-c2cnc(NCC3(c4ncccc4Cl)CCC3)nn2)c1 [3-[3-({[(3-chloro(2-pyridyl))cyclobutyl]methyl}amino)(1,2,4-triazin-6-yl)]-4-fluorobenzamide]",A (A=<1 uM)
14,"O=C(O)c1ccc(F)c(-c2cnc(NCC3(c4ncccc4Cl)CCC3)nn2)c1 [3-[3-({[(3-chloro(2-pyridyl))cyclobutyl]methyl}amino)(1,2,4-triazin-6-yl)]-4-fluorobenzoic acid]",A (A=<1 uM)
15,"NC(=O)c1cccc(-c2cnc(NCC3(c4ncccc4F)CCC3)nn2)c1 [3-[3-({[(3-fluoro-2-pyridyl)cyclobutyl]methyl}amino)-1,2,4-triazin-6-yl]benzamide]",B (B=1-10 uM)
16,NC(=O)c1cccc(-c2cnc(NC[C@]3(c4ncccc4F)C[C@H](F)C3)c(F)c2)c1 [3-[5-fluoro-6-({[3-fluoro-1-(3-fluoro(2-pyridyl))cyclobutyl]methyl}amino)-3-pyridyl]benzamide],B (B=1-10 uM)

row,Compound,Mean AC1.4
1,"NC(=O)c1cccc(-c2ncc(NCC3(c4ccc(F)cc4)CCC3)nn2)c1 [3-[6-({[(4-fluorophenyl)cyclobutyl]methyl}amino 1,2,4-triazin-3-yl]benzamide]",A (A=<1 uM)
2,"CC(C)(Nc1ncc(-c2ccc(C(N)=O)cc2F)nn1)c1ncccc1F [3-fluoro-4-(3-{[1-(3-fluoro(2-pyridyl))-isopropyl]amino}(1,2,4-triazin-6-yl))benzamide]",D (D=>20 uM)
3,"CC(C)(C)Nc1ncc(-c2cc(C(N)=O)ccc2F)nn1 [3-{3-[(tert-butyl)amino](1,2(4-triazin-6-yl)}-4-fluorobenzamide]",D (D=>20 uM)
4,NC(=O)c1cccc(-c2ccc(NC(=O)Cc3ccc(F)cc3)nc2)c1 [3-{6-[2-(4-fluorophenyl)acetylamino]-3-pyridyl}benzamide],D (D=>20 uM)
5,CC(C)(CNc1ccc(-c2ccc(C(N)=O)cc2)cn1)c1ccc(F)cc1 [4-(6-{[2-(4-fluorophenyl)-2-methylpropyl]amino}-3-pyridyl)benzamide],B (B=1-10 uM)
6,"CC(C)(Nc1ncc(-c2cc(C(N)=O)ccc2F)nn1)c1ncccc1F [4-fluoro-3-(3-{[1-(3-fluoro(2-pyridyl))-isopropyl]amino}(1,2,4-triazin-6-yl))benzamide]",B (B=1-10 uM)
7,"CC(C)(Nc1ncc(-c2cc(C(=O)O)ccc2F)nn1)c1ncccc1F [4-fluoro-3-(3-{[1-(3-fluoro(2-pyridyl))-isopropyl]amino}(1,2,4-triazin-6-yl))benzoic acid]",C (C=10-20 uM)
8,"Cc1ccc(F)c(C(C)(C)Nc2ncc(-c3cc(C(N)=O)ccc3F)nn2)n1 [4-fluoro-3-(3-{[1-(3-fluoro-6-methyl(2-pyridyl))-isopropyl]amino}(1,2,4-triazin-6-yl))benzamide]",B (B=1-10 uM)
9,"CC(C)(Nc1ncc(-c2cc(C(N)=O)ccc2F)nn1)c1ccc(F)cc1 [4-fluoro-3-(3-{[1-(4-fluorophenyl)-isopropyl]amino}(1,2,4-triazin-6-yl))benzamide]",A (A=<1 uM)
10,"Cc1nc(C(C)(C)Nc2ncc(-c3cc(C(N)=O)ccc3F)nn2)ccc1F [4-fluoro-3-(3-{[1-(5-fluoro-6-methyl(2-pyridyl))-isopropyl]amino}(1,2,4-triazin-6-yl))benzamide]",B (B=1-10 uM)
11,"Cc1cccc(C(C)(C)Nc2ncc(-c3cc(C(N)=O)ccc3F)nn2)n1 [4-fluoro-3-(3-{[1-methyl-1-(6-methyl(2-pyridyl))ethyl]amino}(1,2,4-triazin-6-yl))benzamide]",C (C=10-20 uM)
12,"NC(=O)c1ccc(F)c(-c2cnc(NCC3(c4ccccn4)CCC3)nn2)c1 [4-fluoro-3-(3-{[(2-pyridylcyclobutyl)methyl]amino}(1,2,4-triazin-6-yl))benzamide]",B (B=1-10 uM)
13,"NC(=O)c1ccc(F)c(-c2cnc(NC3(c4ncccc4F)CCC3)nn2)c1 [4-fluoro-3-(3-{[(3-fluoro(2-pyridyl))cyclobutyl]amino}(1,2,4-triazin-6-yl))benzamide]",B (B=1-10 uM)
14,"CC(Nc1ncc(-c2cc(C(N)=O)ccc2F)nn1)c1ncccc1F (centres unmarked) [4-fluoro-3-(3-{[(3-fluoro(2-pyridyl))ethyl]amino}(1,2,4-triazin-6-yl))benzamide]",C (C=10-20 uM)
15,"NC(=O)c1ccc(F)c(-c2cnc(NC3(c4ccc(F)cc4)CCC3)nn2)c1 [4-fluoro-3-(3-{[(4-fluorophenyl)cyclobutyl]amino}(1,2,4-triazin-6-yl))benzamide]",B (B=1-10 uM)
16,"CC(C)(Nc1ncc(-c2cc(C(N)=O)ccc2F)nn1)c1cccc(S(C)(=O)=O)c1 [4-fluoro-3-[3-({1-methyl-1-[3-(methylsulfonyl)phenyl]ethyl}amino)(1,2,4-triazin-6-yl)]benzamide]",D (D=>20 uM)
